Measured values published in patent US8846758B2, “Methods of decreasing glycosylated hemoglobin in patients with dyslipidemia” (TWi Biotechnology, Inc., priority 2011, dated 2014).

Legend:
[1] = Same study: body weight and lipid profiles; assay type: in vivo, human; conditions: diacerin 50 mg twice daily, 24 weeks
Description: This was a prospective, randomized, double-blind, and parallel comparison study comparing diacerin 50 mg versus placebo in patients with type 2 diabetes mellitus inadequately controlled by previous antidiabetic therapy. The starting dose of diacerin was 50 mg once daily every morning for 4 weeks and could be adjusted up to 50 mg twice daily (morning and evening) if patients have become accustomed to the medication. Patients were screened for eligibility four weeks (week—4) prior to entry at baseline (week 0). During this 4-week screening period, the participants continued their previous antidiabetic therapy, dietary habits, and other lifestyle habits. In order to be eligible for randomization following the 4-week screening period, patients must not have experienced hypoglycemia and must have had two fasting plasma glucose (FPG) measurements of between 135 to 250 mg/dL. At the end of the screening period, patients who met eligibility requirements were randomly assigned to receive diacerin 50 mg or placebo twice a day for 24 weeks observation. During treatment/observation period, the previous antidiabetic therapy including the class and/or dosage was not changed. […]
For the efficacy parameters, descriptive statistics were presented by visit. […] The area under the concentration-time curve (AUC) was used for evaluating the parameters measured by oral glucose tolerance test. […]

[2] = test system: patients with type 2 diabetes mellitus inadequately controlled by previous antidiabetic therapy; assay: Randomized, double-blind, placebo-controlled study of diacerin in uncontrolled type 2 diabetes mellitus: HbA1c; assay type: in vivo, human
Source text: To evaluate the efficacy and safety of diacerin for the treatment of type 2 diabetes mellitus (DM).
To compare the efficacy of add-on diacerin with no add-on treatment (placebo) on HbA1c after 24-week double-blind treatment in Type 2 DM patients inadequately controlled by previous antidiabetic therapy.
Male or female patients (BMI≦35 kg/m^2) with type 2 diabetes mellitus on a stable oral hypoglycemic monotherapy for at least 3 months prior to screening visit. The HbA1c measurements taken at screening visit must be between 7% and 12%. Patients enrolled in the study must be receiving one or more oral antihyperglycemic agents including sulfonylurea, biguanides, alpha-glucosidase inhibitors, thiazolidinediones, and nonsulfonylurea insulin secretagogues.
This was a prospective, randomized, double-blind, and parallel comparison study comparing diacerin 50 mg versus placebo in patients with type 2 diabetes mellitus inadequately controlled by previous antidiabetic therapy. The starting dose of diacerin was 50 mg once daily every morning for 4 weeks and could be adjusted up to 50 mg twice daily (morning and evening) if patients have become accustomed to the medication. Patients were screened for eligibility four weeks (week—4) prior to entry at baseline (week 0). During this 4-week screening period, the participants continued their previous antidiabetic therapy, dietary habits, and other lifestyle habits. In order to be eligible for randomization following the 4-week screening period, patients must not have experienced hypoglycemia and must have had two fasting plasma glucose (FPG) measurements of between 135 to 250 mg/dL. At the end of the screening period, patients who met eligibility requirements were randomly assigned to receive diacerin 50 mg or placebo twice a day for 24 weeks observation. During treatment/observation period, the previous antidiabetic therapy including the class and/or dosage was not changed. Patients were asked to attend the center on eight occasions (screening, baseline, week 4, 8, 12, 16, 20 and 24) during the trial. The total study duration including the screening period for each patient was 28 weeks. There was a two weeks long follow-up period after completion of the treatment/observation. During this follow-up period, patients were followed for adverse events.
The difference (diacerin vs. placebo) of HbA1c reduction between the two treatment groups was analyzed by analysis of covariance (ANCOVA) with baseline value as a covariate. The corresponding 95% confidence interval was calculated. Within-group changes were also analyzed, with paired t test used to evaluate differences from baseline in each treatment group.
For the efficacy parameters, descriptive statistics were presented by visit. Statistical analysis was performed to assess the mean change from baseline. The area under the concentration-time curve (AUC) was used for evaluating the parameters measured by oral glucose tolerance test.
A dyslipidemia sub-group was assembled, wherein subjects had the following baseline levels: a) plasma cholesterol levels greater than 200 mg/dl, or b) plasma triglyceride levels greater than 150 mg/dl, or c) plasma LDL levels greater than 100 mg/dl. The effects of administering […] to the patients in this dyslipidemia sub-group were analyzed by paired t-test compared with the placebo group.
Subjects (n=76) were randomized in a 1:1 ratio to receive twice-daily diacerin 50 mg (n=38), or placebo (n=38) for 24 weeks. 26 subjects in the diacerin group finished the whole treatment period. Within these 26 subjects, there were 16 subjects with plasma cholesterol levels greater than 200 mg/dl, or plasma triglyceride levels greater than 150 mg/dl, or plasma LDL levels greater than 100 mg/dl at baseline respectively. Plasma cholesterol, triglyceride and LDL levels in the other 10 subjects were normal in the baseline. Thus, there were 16 subjects in the dyslipidemia subgroup.

## CC(=O)Oc1cccc2c1C(=O)c1c(OC(C)=O)cc(C(=O)O)cc1C2=O [diacerin, 4,5-bis(acetyloxy)-9,10-dioxo-2-anthracene carboxylic acid]
[1]
  changes in body weight compared with the placebo group: no significant changes
  changes in lipid profiles compared with the placebo group: no significant changes
[2]; All subjects (N=26) completing 24 weeks, diacerin 50 mg twice daily add-on
  HbA1c mean change from baseline, week 24: −0.63%
[2]; Dyslipidemia subgroup (N=16), diacerin 50 mg twice daily, 24 weeks
  HbA1c mean change from baseline, week 24: −0.82%
[2]; Hyper LDL-cholesterolemia subgroup (N=11), diacerin 50 mg twice daily, 24 weeks
  HbA1c mean change from baseline, week 24: −0.84%
[2]; Hypercholesterolemia subgroup (N=7), diacerin 50 mg twice daily, 24 weeks
  HbA1c mean change from baseline, week 24: −0.76%
[2]; Hypertriglyceridemia or hypercholesterolemia subgroup (N=14), diacerin 50 mg twice daily, 24 weeks
  HbA1c mean change from baseline, week 24: −0.89%
[2]; Hypertriglyceridemia subgroup (N=11), diacerin 50 mg twice daily, 24 weeks
  HbA1c mean change from baseline, week 24: −0.83%
[2]; Normal lipid profiles subgroup (N=10), diacerin 50 mg twice daily, 24 weeks
  HbA1c mean change from baseline, week 24: −0.30%
[2]; after 24-week treatment, all subjects, p<0.05
  decrease of HbA1c levels compared with the placebo group: about 0.63%
[2]; diacerin group, 13 of 26 patients, 24 weeks
  patients whose HbA1c levels decreased by more than or equal to 0.5%: 50%
[2]; dyslipidemia subgroup, 10 of 16 patients, 24 weeks
  patients whose HbA1c levels decreased by more than or equal to 0.5%: 62.5%
[2]; dyslipidemia subgroup, after 24-week treatment
  decrease of HbA1c levels compared with the baseline: about 0.82%
[2]; hypercholesterolemia subgroup, 4 of 7 patients, 24 weeks
  patients whose HbA1c levels decreased by more than or equal to 0.5%: 57.1%
[2]; hypertriglyceridemia or hypercholesterolemia subgroup, 10 of 14 patients, 24 weeks
  patients whose HbA1c levels decreased by more than or equal to 0.5%: 71.4%
[2]; hypertriglyceridemia subgroup, 7 of 11 patients, 24 weeks
  patients whose HbA1c levels decreased by more than or equal to 0.5%: 63.6%
[2]; normal plasma lipid profiles, 4 of 10 patients, 24 weeks
  patients whose HbA1c levels decreased by more than or equal to 0.5%: 40%
[2]; type 2 diabetic patients with normal lipid profile, after 24-week treatment
  decrease of HbA1c levels compared with the baseline: about 0.30%
